Data: ChEMBL document CHEMBL2424599, “Design, synthesis, docking study and biological evaluation of some novel tetrahydrochromeno [3',4':5,6]pyrano[2,3-b]quinolin-6(7H)-one derivatives against acetyl- and butyrylcholinesterase” (Eur J Med Chem, 2013)

Columns and labels:
Cholinesterase = Cholinesterase (Equus caballus, UniProt P81908)
Description: Inhibition of equine serum BChE using butyrylthiocholine iodide as substrate preincubated for 10 mins prior to substrate addition by Ellman's method

Acetylcholinesterase [1] = target: T1, Acetylcholinesterase (Electrophorus electricus, UniProt O42275)
Description: Inhibition of electric eel AChE using acetylthiocholine iodide as substrate preincubated for 10 mins prior to substrate addition by Ellman's method

Acetylcholinesterase [2] = target: T1, Acetylcholinesterase; assay: Mixed-type inhibition of electric eel AChE using acetylthiocholine iodide as substrate by Lineweaver-Burk plot analysis

Cholinesterase, sequence (P81908 whole entry): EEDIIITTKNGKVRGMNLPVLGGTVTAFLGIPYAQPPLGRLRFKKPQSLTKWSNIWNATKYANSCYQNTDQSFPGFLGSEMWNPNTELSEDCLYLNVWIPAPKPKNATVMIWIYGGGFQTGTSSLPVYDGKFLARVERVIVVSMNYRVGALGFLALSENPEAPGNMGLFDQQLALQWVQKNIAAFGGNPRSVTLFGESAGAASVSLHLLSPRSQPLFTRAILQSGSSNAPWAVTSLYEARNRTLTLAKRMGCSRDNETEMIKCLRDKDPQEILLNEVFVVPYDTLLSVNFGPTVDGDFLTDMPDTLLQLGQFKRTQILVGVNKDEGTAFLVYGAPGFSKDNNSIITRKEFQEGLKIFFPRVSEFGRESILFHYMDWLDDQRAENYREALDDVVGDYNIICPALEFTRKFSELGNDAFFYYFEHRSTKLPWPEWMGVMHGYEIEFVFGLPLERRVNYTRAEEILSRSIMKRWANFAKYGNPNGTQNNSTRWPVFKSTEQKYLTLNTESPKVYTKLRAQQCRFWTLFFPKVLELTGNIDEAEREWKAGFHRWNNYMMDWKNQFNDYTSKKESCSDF
T1 sequence (O42275 whole entry): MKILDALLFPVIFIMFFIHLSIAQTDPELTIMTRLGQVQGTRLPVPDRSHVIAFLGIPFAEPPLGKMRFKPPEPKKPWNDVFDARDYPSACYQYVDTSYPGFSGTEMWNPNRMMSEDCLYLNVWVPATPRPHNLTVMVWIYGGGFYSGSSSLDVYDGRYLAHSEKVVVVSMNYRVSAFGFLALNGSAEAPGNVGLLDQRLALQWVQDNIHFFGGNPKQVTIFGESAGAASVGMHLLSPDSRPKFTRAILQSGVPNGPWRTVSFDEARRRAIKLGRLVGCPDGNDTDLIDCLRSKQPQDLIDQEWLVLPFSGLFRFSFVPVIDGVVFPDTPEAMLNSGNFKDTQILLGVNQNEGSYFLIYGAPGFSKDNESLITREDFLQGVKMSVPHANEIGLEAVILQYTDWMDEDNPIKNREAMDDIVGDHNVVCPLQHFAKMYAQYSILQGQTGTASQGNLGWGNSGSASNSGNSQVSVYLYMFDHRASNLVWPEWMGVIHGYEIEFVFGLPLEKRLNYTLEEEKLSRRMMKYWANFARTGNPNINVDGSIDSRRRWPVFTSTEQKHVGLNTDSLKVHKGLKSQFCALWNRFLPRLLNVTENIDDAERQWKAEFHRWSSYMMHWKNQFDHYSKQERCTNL

| Compound | IC50 (Cholinesterase) [nM] | IC50 (Acetylcholinesterase [1]) [nM] | Ki (Acetylcholinesterase [2]) [nM] |
| --- | --- | --- | --- |
| Nc1c2c(nc3c1C(c1ccccc1)c1c(c4ccccc4oc1=O)O3)CCCC2 (configuration not stated) | 1700 | 24 |  |
| Nc1c2c(nc3c1C(c1cccc(Cl)c1)c1c(c4ccccc4oc1=O)O3)CCCC2 (configuration not stated) | > 30000 | 288 |  |
| Nc1c2c(nc3c1C(c1cccc(F)c1)c1c(c4ccccc4oc1=O)O3)CCCC2 (configuration not stated) | 890 | 67 |  |
| COc1cc(C2c3c(nc4c(c3N)CCCC4)Oc3c2c(=O)oc2ccccc32)cc(OC)c1OC (configuration not stated) | 3260 | 69 |  |
| COc1ccc(C2c3c(nc4c(c3N)CCCC4)Oc3c2c(=O)oc2ccccc32)cc1 (configuration not stated) | 840 | 16 |  |
| CCCCC1c2c(nc3c(c2N)CCCC3)Oc2c1c(=O)oc1ccccc21 (configuration not stated) | 23000 | 57 |  |
| Nc1c2c(nc3c1C(c1ccc(Cl)cc1)c1c(c4ccccc4oc1=O)O3)CCCC2 (configuration not stated) | > 30000 | 93 |  |
| Nc1c2c(nc3c1C(c1ccc(Cl)cc1Cl)c1c(c4ccccc4oc1=O)O3)CCCC2 (configuration not stated) | > 30000 | 50 |  |
| Nc1c2c(nc3c1C(c1ccc(F)cc1)c1c(c4ccccc4oc1=O)O3)CCCC2 (configuration not stated) | 15700 | 5 | 22.4 |
| Nc1c2c(nc3c1C(c1cccc([N+](=O)[O-])c1)c1c(c4ccccc4oc1=O)O3)CCCC2 (configuration not stated) | 18300 | 141 |  |
| Nc1c2c(nc3c1C(c1ccccc1Cl)c1c(c4ccccc4oc1=O)O3)CCCC2 (configuration not stated) | 4900 | 35 |  |
| COc1ccc(C2c3c(nc4c(c3N)CCCC4)Oc3c2c(=O)oc2ccccc32)cc1OC (configuration not stated) | 2100 | 43 |  |
| Cc1ccc(C2c3c(nc4c(c3N)CCCC4)Oc3c2c(=O)oc2ccccc32)cc1 (configuration not stated) | > 30000 | 14 |  |
| CC1c2c(nc3c(c2N)CCCC3)Oc2c1c(=O)oc1ccccc21 (configuration not stated) | 1220 | 432 |  |
| Nc1c2c(nc3c1C(c1cccs1)c1c(c4ccccc4oc1=O)O3)CCCC2 (configuration not stated) | 6700 | 84 |  |
| CCC1c2c(nc3c(c2N)CCCC3)Oc2c1c(=O)oc1ccccc21 (configuration not stated) | 5600 | 266 |  |
| Nc1c2c(nc3c1C(c1ccncc1)c1c(c4ccccc4oc1=O)O3)CCCC2 (configuration not stated) | > 30000 | 53 |  |
| Nc1c2c(nc3c1C(c1ccc4c(c1)OCO4)c1c(c4ccccc4oc1=O)O3)CCCC2 (configuration not stated) | 570 | 13 |  |
